Test results reported in patent publication US10314812B2, “Suspension compositions of physiologically active phenolic compounds and methods of making and using the same” (Humanetics Corporation, priority 2013, dated 2019).

Legend:
[1] = Particle size analysis by laser diffraction (LA-950, Horiba); format: physicochemical; conditions: for particle size distribution (PSD) after milling: 25% (w/v) genistein in olive oil, nanomilled 60 minutes in YTZ media, initial measurement; for D(0.50) particle size: material as provided by the commercial supplier (DSM), before milling
Excerpt: In the context of the present description, the particle size distribution of a given material is provided in volume diameter as measured in accordance with USP 429 using a laser diffraction particle size analyzer operating in the Mie Scattering Theory diffraction mode and equipped with a suspension dispersion sample chamber (e.g., as available from Horiba Instruments, Irvine, Calif., USA). For purposes of the present description, volume diameter is given as a particle size distribution defined by one or more of D (0.10), D (0.50) and D (0.90). When referred to herein, the term D (0.10) indicates the volume frequency distribution of particles for which 10% of the sample is below the referenced size, the term D (0.50) indicates the volume frequency distribution of particles for which 50% of the sample is below the referenced size, and the term D (0.90) indicates the volume frequency distribution of particles for which 90% of the sample is below the referenced size. In addition to measurement of the particle size distribution via laser diffraction, the results from such particle size analysis and/or the morphology of the particles may be confirmed using known electron microscopy techniques.
Genivida™, a food grade genistein, and Bonistein®, a pharmaceutical grade genistein, were obtained from a commercial supplier (DSM, http://www.dsm.com/corporate/home.html) and subjected to particle size analysis. […] FIG. 1 and FIG. 2 illustrate the PSD of the Genivida™ and Bonistein® materials as supplied from DSM.
The Genivida™ and Bonistein® materials were dispersed within the olive oil to provide a suspension composition that included 25% (w/v) genistein. Several samples ≈200 ml per sample) of the 25% w/v genistein/olive oil suspension were divided and milled using a, MiniCer® nanomill from Netzsch. The samples containing Bonistein® were milled for 60 minutes in a 0.3 mm YTZ media (yttria stabilized zirconium oxide (ZrO2) beads). Samples containing Genivida™ were milled for 60 minutes in a 0.5 mm YTZ media.
A selection of the samples containing Genivida™ were subjected to a pre-milling process (referred to or labeled as “pre-grind” samples). The pre-milling process also utilized a MiniCer® nanomill from Netzsch with YTZ milling media. However, the milling media utilized in the pre-milling step was 1.25 mm YTZ media. Pre-milling was carried out for 20 minutes, with the purpose of reducing the D(0.50) particle size of the Genivida™ to below 10 μm. After pre-milling, those samples subjected to the pre-milling procedure were milled in a MiniCer® nanomill for 60 minutes in a 0.3 mm YTZ media.
After the milling steps, particle size analysis was completed for each sample. […]

[2] = Particle size stability of genistein/olive oil nanosuspensions stored at ambient temperature (laser diffraction and TEM); format: physicochemical; conditions: suspended in olive oil, glass vials
Excerpt: After the milling steps, particle size analysis was completed for each sample. […] An amount of each nanosuspension composition was aliquoted into 3.7 cc glass vials, which were then stored at ambient temperature.
At approximately two months, samples were taken from each vial and subjected to laser diffraction particle size analysis and TEM analysis.
At the 3-month time point, a sample of each nanosuspension was taken from each vial and again subjected to laser diffraction particle size analysis and TEM analysis. Even after three months, the genistein material suspended in the olive oil remained nano-sized, with the D(0.50) at 3 months in all cases being <300 nm (see, FIGS. 3A-3C).
For each of the samples at each time point, particle size analysis conducted by laser diffraction was carried out using a LA-950 particle size analyzer from Horiba Scientific, Edison, N.J.

| Compound | particle size distribution (PSD) after milling [1] | D(0.50) particle size [1] | D(0.50) at 3 months ([2]; 3 months, all samples) | particle size distribution (PSD) after storage ([2]; approximately two months, laser diffraction and TEM) |
| --- | --- | --- | --- | --- |
| O=c1c(-c2ccc(O)cc2)coc2cc(O)cc(O)c12 [Genivida™] | nanoparticulate PSD | 29.5 μm | – | – |
| O=c1c(-c2ccc(O)cc2)coc2cc(O)cc(O)c12 [genistein, 5,7-dihydroxy-3-(4-hydroxyphenyl)-chromen-4-one] | – | – | < 300 nm | maintained a nanoparticulate PSD |
| O=c1c(-c2ccc(O)cc2)coc2cc(O)cc(O)c12 [Bonistein®] | nanoparticulate PSD | 10.7 μm | – | – |
